Source: US20040106626A1, “6-Membered unsaturated heterocyclic compounds useful for selective inhibition of the coagulation cascade” (Pharmacia Corporation, priority 2001, published 2004)

Tests used:
Type in all cases: biochemical
[1] = molecular target: T1, recombinant soluble tissue factor and recombinant human factor VIIa (TF-VIIa) (Homo sapiens, UniProt P08709); assay: TF-VIIa assay (chromogenic substrate hydrolysis); conditions: reported only as less than or greater than 0.1 uM
T1 construct: conversion of coagulation factor VII to VIIa by factor Xa; purchased American Diagnostica, Greenwich CT; host or cells: soluble TF made in house in E. coli
T1 sequence (P08709 213-466 limits assumed): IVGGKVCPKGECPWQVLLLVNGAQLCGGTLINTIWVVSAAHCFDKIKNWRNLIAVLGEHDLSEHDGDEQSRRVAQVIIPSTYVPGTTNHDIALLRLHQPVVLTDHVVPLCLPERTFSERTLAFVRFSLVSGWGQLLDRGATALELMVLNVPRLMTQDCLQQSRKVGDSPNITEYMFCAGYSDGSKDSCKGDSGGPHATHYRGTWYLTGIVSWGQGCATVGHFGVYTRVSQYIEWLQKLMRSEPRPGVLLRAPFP
T1 sequence (P08709 61-212 limits assumed): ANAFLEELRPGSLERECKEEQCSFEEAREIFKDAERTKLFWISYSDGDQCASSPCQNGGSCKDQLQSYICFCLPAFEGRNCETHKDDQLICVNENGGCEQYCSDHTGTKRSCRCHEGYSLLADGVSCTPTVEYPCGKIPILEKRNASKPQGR
T1 sequence (P13726 33-251 partner limits assumed): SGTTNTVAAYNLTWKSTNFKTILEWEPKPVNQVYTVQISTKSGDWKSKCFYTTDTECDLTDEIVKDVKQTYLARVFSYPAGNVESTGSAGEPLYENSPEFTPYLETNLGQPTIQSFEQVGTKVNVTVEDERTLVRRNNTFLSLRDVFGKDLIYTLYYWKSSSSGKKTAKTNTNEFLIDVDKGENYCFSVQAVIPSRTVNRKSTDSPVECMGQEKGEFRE
Outline: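 Chromogenic read at OD405, compared with control for percent inhibition. Substrate N-methylsulfonyl-D-phe-gly-arg-p-nitroaniline at 0.4 mM is cleaved by recombinant human VIIa (2 nM) complexed with soluble TF (100 nM). Buffer: pH 8.0 Tris-HCl 50 mM, CaCl2 5 mM, NaCl 100 mM, BSA 0.1%.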

Human factor Xa = molecular target: T2, Human factor Xa (Homo sapiens, UniProt P00742); assay: Xa assay (chromogenic substrate S-2765); conditions: reported only as less than or greater than 30 uM; read-out: Factor Xa (II) IC50
T2 construct: purchased Enzyme Research Laboratories, South Bend Ind
T2 sequence (P00742 235-488 limits assumed): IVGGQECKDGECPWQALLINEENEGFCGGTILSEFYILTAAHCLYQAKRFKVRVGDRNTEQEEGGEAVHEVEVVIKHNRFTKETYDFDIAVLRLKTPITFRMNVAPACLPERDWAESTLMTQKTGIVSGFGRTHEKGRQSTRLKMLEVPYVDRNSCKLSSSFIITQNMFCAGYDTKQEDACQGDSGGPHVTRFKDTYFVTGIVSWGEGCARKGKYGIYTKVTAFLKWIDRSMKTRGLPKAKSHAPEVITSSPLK
T2 sequence (P00742 41-179 limits assumed): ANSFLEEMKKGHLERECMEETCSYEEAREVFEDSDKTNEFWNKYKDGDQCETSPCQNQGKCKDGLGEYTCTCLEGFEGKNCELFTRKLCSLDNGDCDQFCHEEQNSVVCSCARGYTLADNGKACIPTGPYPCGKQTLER
Outline: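 Chromogenic readout: S-2765 hydrolysis (0.15 mM) by 0.3 nM human FXa was monitored at 405 nm after 60 min at room temperature, with a time-zero background read. Buffer: 50 mM Tris-HCl, pH 8.0, 100 mM NaCl, 0.1% BSA. Inhibition is relative to buffer-only controls.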

Human thrombin = molecular target: T3, Human thrombin (Homo sapiens, UniProt P00734); assay: Thrombin assay (chromogenic substrate); conditions: reported only as less than or greater than 30 uM; read-out: Thrombin (II) IC50
T3 construct: converts prothrombin (II) to thrombin (IIa); purchased Calbiochem, La Jolla, Calif
Outline: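 Percent inhibition derived by comparing OD405 nm of compound-treated and control samples. Thrombin cleavage of a p-nitroanilide chromogenic substrate provides the signal.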

[2] = system: Normal human pooled plasma; assay: Prothrombin time (PT) clotting assay; conditions: concentration at which prothrombin time is prolonged by 2x normal, reported as less than or greater than 50 uM
Description: The prothrombin time (PT) assay is a clotting assay that is used to determine deficiencies of clotting factor activity in the extrinsic pathway. The assay measures time to clotting after the addition of thromboplastin (human tissue factor). Normal human pooled plasma is incubated with 100 uM compound or saline in a coagulation machine. Thromboplastin is added and time to clotting is measured. Compounds with greater than 3×normal PT of 11.0 seconds are further analyzed by concentration response to determine at what concentration the prothrombin time is prolonged by 2×normal.

Row | Structure (SMILES) | IC50 [1] | IC50 (Human factor Xa) | IC50 (Human thrombin) | PT (Prothrombin time) 2xPT [2]
1 | COCCNC(=O)c1cc(N)cc(-c2cnc(NC(C)C)c(=O)n2CC(=O)NCc2ccc(C(=N)N)cc2)c1.O=C(O)C(F)(F)F [Example 119] | < 0.1 µM | > 30 µM | < 30 µM | <50.0 µM
2 | CC(C)Nc1ncc(-c2cc(N)cc(C(F)(F)F)c2)n(CC(=O)NCc2ccc(C(=N)N)cc2)c1=O [Example 18] | < 0.1 µM | > 30 µM | > 30 µM | <50.0 µM
3 | CCC(C)NC(=O)c1cc(N)cc(-c2cnc(NC(C)C)c(=O)n2CC(=O)NCc2ccc(C(=N)N)cc2)c1.O=C(O)C(F)(F)F.O=C(O)C(F)(F)F (centres unmarked) [Example 7] | < 0.1 µM | > 30 µM | < 30 µM | <50.0 µM
4 | CC[C@@H](C)NC(=O)c1cc(N)cc(-c2cnc(NC(C)C)c(=O)n2CC(=O)NCc2c(O)cc(C(=N)N)cc2OC)c1 [Example 198] | < 0.1 µM | > 30 µM | > 30 µM | <50.0 µM
5 | CC(C)CSc1cc(N)cc(-c2cnc(NC(C)C)c(=O)n2CC(=O)NCc2ccc(C(=N)N)cc2)c1 [Example 70, N-{4-[amino(imino)methyl]benzyl}-2-[6-[3-amino-5-(isobutylthio)phenyl]-3-(isopropylamino)-2-oxopyrazin-1 (2H)-yl]acetamide] | < 0.1 µM | > 30 µM | > 30 µM | <50.0 µM
6 | CC(C)Nc1ncc(-c2cc(N)cc(OC3CCCC3)c2)n(CC(=O)NCc2ccc(C(=N)N)cc2)c1=O.O=C(O)C(F)(F)F.O=C(O)C(F)(F)F [Example 212] | < 0.1 µM | > 30 µM | > 30 µM | <50.0 µM
7 | CC(C)CCNC(=O)c1cc(N)cc(-c2cnc(NC(C)C)c(=O)n2CC(=O)NCc2ccc(C(=N)N)cc2)c1.O=C(O)C(F)(F)F.O=C(O)C(F)(F)F [Example 6] | < 0.1 µM | > 30 µM | > 30 µM | <50.0 µM
8 | CC(C)Nc1ncc(-c2cc(N)cc(NC(=O)NCc3ccccc3)c2)n(CC(=O)NCc2ccc(C(=N)N)cc2)c1=O [Example 114] | < 0.1 µM | > 30 µM | > 30 µM | <50.0 µM
9 | CC(C)Nc1ncc(-c2cc(N)cc(NC(=O)C3CC3)c2)n(CC(=O)NCc2ccc(C(=N)N)cc2)c1=O.O=C(O)C(F)(F)F.O=C(O)C(F)(F)F [Example 144] | < 0.1 µM | > 30 µM | > 30 µM | <50.0 µM
10 | CC(C)Nc1ncc(-c2cc(N)cc(NC(=O)c3ccccc3)c2)n(CC(=O)NCc2ccc(C(=N)N)cc2)c1=O [Example 109] | < 0.1 µM | > 30 µM | < 30 µM | <50.0 µM
11 | CC(C)CC(=O)Nc1cc(N)cc(-c2cnc(NC(C)C)c(=O)n2CC(=O)NCc2ccc(C(=N)N)cc2)c1 [Example 112] | < 0.1 µM | > 30 µM | < 30 µM | <50.0 µM
12 | CCC(CC)C(=O)Nc1cc(N)cc(-c2cnc(NC(C)C)c(=O)n2CC(=O)NCc2ccc(C(=N)N)cc2)c1.O=C(O)C(F)(F)F.O=C(O)C(F)(F)F [Example 134] | < 0.1 µM | > 30 µM | < 30 µM | <50.0 µM
13 | CC(C)Nc1ncc(-c2cc(N)cc(NS(=O)(=O)c3ccccc3)c2)n(CC(=O)NCc2ccc(C(=N)N)cc2)c1=O [Example 96] | < 0.1 µM | > 30 µM | > 30 µM | <50.0 µM
14 | CCC(C)[C@H](NC(=O)c1cc(N)cc(-c2cnc(NC(C)C)c(=O)n2CC(=O)NCc2ccc(C(=N)N)cc2)c1)C(=O)O (some centres unmarked) [Example 85] | < 0.1 µM | > 30 µM | > 30 µM | <50.0 µM
15 | COc1ccc(S(=O)(=O)Nc2cc(N)cc(-c3cnc(NC(C)C)c(=O)n3CC(=O)NCc3ccc(C(=N)N)cc3)c2)cc1 [Example 92] | < 0.1 µM | > 30 µM | > 30 µM | <50.0 µM
16 | CC(C)Nc1ncc(-c2cc(N)cc(C(=O)NCc3ccc(C(=O)O)cc3)c2)n(CC(=O)NCc2ccc(C(=N)N)cc2)c1=O.O=C(O)C(F)(F)F.O=C(O)C(F)(F)F [Example 171] | < 0.1 µM | > 30 µM | > 30 µM | <50.0 µM
17 | CC(C)Nc1ncc(-c2cc(N)cc(NC(=O)[C@H]3C[C@@H]3c3ccccc3)c2)n(CC(=O)NCc2ccc(C(=N)N)cc2)c1=O.O=C(O)C(F)(F)F.O=C(O)C(F)(F)F [Example 140] | < 0.1 µM | > 30 µM | < 30 µM | <50.0 µM
18 | CC(C)Nc1ncc(-c2cc(N)cc(C(=O)NC3CCC3)c2)n(CC(=O)NCc2ccc(C(=N)N)cc2)c1=O.O=C(O)C(F)(F)F.O=C(O)C(F)(F)F [Example 15] | < 0.1 µM | > 30 µM | < 30 µM | <50.0 µM
19 | COC(=O)c1cc(N)cc(-c2c(Br)nc(NC(C)C)c(=O)n2CC(=O)NCc2ccc(C(=N)N)cc2)c1 [Example 4, Methyl 3-amino-5-[1-[2-({4-[amino(imino)methyl]benzyl}amino)-2-oxoethyl]-3-bromo-5-(isopropylamino)-6-oxo-1,6-dihydropyrazin-2-yl]benzoate] | < 0.1 µM | > 30 µM | > 30 µM | >50.0 µM
20 | CC(CC(=O)Nc1cc(N)cc(-c2cnc(NC(C)C)c(=O)n2CC(=O)NCc2ccc(C(=N)N)cc2)c1)CC(C)(C)C.O=C(O)C(F)(F)F.O=C(O)C(F)(F)F (centres unmarked) [Example 139] | < 0.1 µM | > 30 µM | < 30 µM | <50.0 µM
21 | CC(C)Nc1ncc(-c2cc(N)cc(OCCc3ccccc3)c2)n(CC(=O)NCc2ccc(C(=N)N)cc2)c1=O.O=C(O)C(F)(F)F.O=C(O)C(F)(F)F [Example 211] | < 0.1 µM | > 30 µM | > 30 µM | <50.0 µM
22 | CC(C)Nc1ncc(-c2cc(N)cc(OCCC(C)(C)C)c2)n(CC(=O)NCc2ccc(C(=N)N)cc2)c1=O.O=C(O)C(F)(F)F.O=C(O)C(F)(F)F [Example 215] | < 0.1 µM | > 30 µM | > 30 µM | <50.0 µM
23 | CCC(C)C(=O)Nc1cc(N)cc(-c2cnc(NC(C)C)c(=O)n2CC(=O)NCc2ccc(C(=N)N)cc2)c1.O=C(O)C(F)(F)F.O=C(O)C(F)(F)F (centres unmarked) [Example 131] | < 0.1 µM | > 30 µM | < 30 µM | <50.0 µM
24 | CC(C)Nc1ncc(-c2cc(N)cc(C(=O)NCc3cccc(O)c3)c2)n(CC(=O)NCc2ccc(C(=N)N)cc2)c1=O [Example 166] | < 0.1 µM | > 30 µM | > 30 µM | <50.0 µM
25 | CC(C)Nc1ncc(-c2cc(N)cc(NC(=O)Nc3ccccc3)c2)n(CC(=O)NCc2ccc(C(=N)N)cc2)c1=O [Example 113] | < 0.1 µM | > 30 µM | > 30 µM | <50.0 µM
26 | CCC(C)Oc1cc(N)cc(-c2cnc(NC(C)C)c(=O)n2CC(=O)NCc2ccc(C(=N)N)cc2)c1.O=C(O)C(F)(F)F.O=C(O)C(F)(F)F (centres unmarked) [Example 224] | < 0.1 µM | > 30 µM | > 30 µM | <50.0 µM
